Measured values as given in article PMC10244282 (Naunyn-Schmiedeberg's Archives of Pharmacology, 2023).

Legend:
[1] = system: atrial preparations from WT mice; assay: Isolated left and right atrial preparations from wild-type (WT) littermates; parameters: species or system mouse; conditions: for effect on beating rate in WT right atrium: spontaneously beating right atrium
Description: (§1) In brief, the right or left atrial preparations from the mice were isolated and mounted in organ baths as previously described (Gergs et al. [2013]; Neumann et al. [2003]). […] The solution was continuously gassed with 95% O2 and 5% CO2 and maintained at 37 °C and pH 7.4 (Kirchhefer et al. [2004]; Neumann et al. [1998], [2003]). Spontaneously beating right atrial preparations from mice were used to study any chronotropic effects.
(§2) The drug application was as follows.

human 5-HT4 receptor [2] = target: T1, human 5-HT4 receptor (Homo sapiens, UniProt Q13639); assay: Spontaneously beating right atrial preparations from 5-HT4-TG mice, beating rate; parameters: species or system human (expressed in cardiomyocytes of transgenic mice); conditions: right atrium of 5-HT4-TG; for Beating rate: 5-HT 1 µM; for Beating rate / Beating rate in % of 1 µM 5-HT: bufotenin 3 µM, tryptamine 100 µM
T1 construct: expressed in transfected cells; host or cells: cardiomyocytes of transgenic mice (alpha-myosin heavy chain promoter); isolated left and right atria and Langendorff-perfused hearts
From the text: (§3) A mouse with cardiomyocyte-specific expression of the human 5-HT4(a) receptor has been generated in our laboratory (Gergs et al. [2010]). The cardiac myocyte-specific expression was achieved by the use of the α-myosin heavy chain promoter. The age of the animals studied in the atrial contraction experiments was around 4 months. Both genders were studied. All mice were housed under conditions of optimum light, temperature, and humidity with food and water provided ad libitum. The investigation conformed to the Guide for the Care and Use of Laboratory Animals as published by the National Research Council (2011). The animals were handled and maintained according to the approved protocols of the Animal Welfare Committee of the University of Halle-Wittenberg, Halle, Germany.
as §1, §2

[3] = system: Langendorff hearts from WT mice; assay: Langendorff perfused hearts from WT mice; parameters: species or system mouse; conditions: data not shown, n = 3
Description: (§4) We followed previously reported methods for the treatment of the animals. This included the removal of the heart and lungs from the thoracic cavity, placing the dissected heart onto a cannula, the use of custom-made equipment, the buffer composition, quantification of the force from the left ventricular apex, digitization of the recordings, and freeze clamping the hearts (Boknik et al. [2019]; Gergs et al. [2019b]).
(§5) Isolated hearts were prepared according to Langendorff (1895).

porcine 5-HT4 receptors = target: porcine 5-HT4 receptors; parameters: method as in Medhurst and Kaumann [1993]; conditions: isolated right atrial preparations of pigs; ref Medhurst and Kaumann [1993]; cited from earlier work
human 5-HT4 receptor [4] = target: T1, human 5-HT4 receptor; assay: Isolated electrically stimulated (1 Hz) left atrial preparations from 5-HT4-TG mice, organ bath contractility; parameters: species or system human (expressed in cardiomyocytes of transgenic mice)
From the text: as §3, §1, §2

human 5-HT4 receptor [5] = target: T1, human 5-HT4 receptor; assay: Langendorff perfused hearts from 5-HT4-TG mice; parameters: species or system human (expressed in cardiomyocytes of transgenic mice); conditions: 1 µM, n = 5, p < 0.05
Description: as §4, §5

[6] = system: phosphorylation state of phospholamban (serine 16); assay: Western blot of serine 16 phosphorylation of phospholamban in cardiac preparations of WT mice; conditions: 1 µM; Langendorff hearts from WT
[7] = system: phosphorylation state of phospholamban (serine 16); assay: Western blot of serine 16 phosphorylation of phospholamban in human right atrial preparations; conditions: electrically stimulated human right atrial preparations
From the text: This is seen in the original tracings (Fig. 7A). […] Calsequestrin was monitored as a loading control in these gels. […] The mouse samples are shown for comparison.

[8] = target: T2, human cardiac 5-HT4 receptors (Homo sapiens, UniProt Q13639); assay: Isolated electrically stimulated (1 Hz) human right atrial preparations, contractility
T2 construct: from tissue; host or cells: human right atrial preparations (musculi pectinati) from male bypass-surgery patients
From the text: The contractile studies on human right atrial preparations were done using the same setup and buffer as used in the mouse studies (see “Contractile studies in mice” section). The samples were obtained from male patients that underwent a bypass surgery (Table 1). Drug therapy included β-receptor blockers, calcium channel blockers, angiotensin-converting enzyme inhibitors/angiotensin receptor blockers, diuretics, direct oral anti-coagulants, metformin, statins, and acetyl salicylic acid. Our methods used for atrial contraction studies in human samples have been previously published and were not altered in this study (Boknik et al. [2019]; Gergs et al. [2009], [2017b], [2018]). This study complies with the Declaration of Helsinki and has been approved by the local ethics committee (hm-bü 04.08.2005) and all patients gave informed consent.

[9] = system: phosphorylation state of phospholamban (serine 16); assay: Western blot of serine 16 phosphorylation of phospholamban in cardiac preparations of 5-HT4-TG mice; conditions: 1 µM
[10] = parameters: method as in Ott [2001]; conditions: humans, ref Ott [2001], cited from earlier work
MAO B = system: MAO B; parameters: method as in Fisar et al. [2010]; conditions: in vitro, irreversible; ref Fisar et al. [2010]; read-out: IC50 (half inhibitory concentration) MAO B; cited from earlier work
MAO A = system: MAO A; parameters: method as in Fisar et al. [2010]; conditions: in vitro, irreversible; ref Fisar et al. [2010]; read-out: IC50 (half inhibitory concentration) MAO A; cited from earlier work
[11] = left atrium of 5-HT4-TG, 5-HT 1 µM, bufotenin 3 µM, tryptamine 100 µM
[12] = left atrium of 5-HT4-TG, bufotenin 3 µM, tryptamine 100 µM
[13] = pD2 (negative decadic logarithm of EC50), force of contraction, left atrium of 5-HT4-TG
[14] = pD2, dF/dtmax, left atrium of 5-HT4-TG
[15] = pD2, dF/dtmin, left atrium of 5-HT4-TG
[16] = pD2, time of relaxation (TR), left atrium of 5-HT4-TG
[17] = pD2, time to peak (TTP), left atrium of 5-HT4-TG

T1 sequence (Q13639 1-387 isoform Q13639-2): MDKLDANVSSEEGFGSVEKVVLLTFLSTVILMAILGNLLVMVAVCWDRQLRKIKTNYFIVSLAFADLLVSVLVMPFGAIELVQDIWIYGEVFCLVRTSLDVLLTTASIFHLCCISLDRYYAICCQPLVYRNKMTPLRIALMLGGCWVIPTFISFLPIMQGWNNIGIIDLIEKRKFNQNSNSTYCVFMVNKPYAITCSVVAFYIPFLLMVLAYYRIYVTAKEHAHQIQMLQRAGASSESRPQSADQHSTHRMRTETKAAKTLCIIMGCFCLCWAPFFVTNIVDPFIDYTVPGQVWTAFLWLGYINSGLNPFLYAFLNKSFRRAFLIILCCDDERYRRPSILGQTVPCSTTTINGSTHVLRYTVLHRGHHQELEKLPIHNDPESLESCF
T2 sequence (Q13639 whole entry): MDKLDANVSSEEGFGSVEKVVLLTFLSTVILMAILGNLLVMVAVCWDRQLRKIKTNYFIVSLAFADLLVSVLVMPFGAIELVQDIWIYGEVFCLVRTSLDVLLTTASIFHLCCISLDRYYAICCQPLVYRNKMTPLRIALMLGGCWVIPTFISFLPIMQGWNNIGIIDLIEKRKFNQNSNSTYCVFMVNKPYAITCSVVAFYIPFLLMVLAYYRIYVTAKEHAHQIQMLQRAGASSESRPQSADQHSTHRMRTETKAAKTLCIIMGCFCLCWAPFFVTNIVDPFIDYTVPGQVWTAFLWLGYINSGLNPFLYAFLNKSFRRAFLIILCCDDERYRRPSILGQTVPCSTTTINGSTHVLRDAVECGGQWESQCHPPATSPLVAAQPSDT

Compound | effect on beating rate in WT right atrium [1] | Beating rate (human 5-HT4 receptor [2]) [bpm] | Beating rate in % of 1 µM 5-HT (human 5-HT4 receptor [2]) | effect in Langendorff hearts from WT mice [3] | pD2, beating rate (porcine 5-HT4 receptors) | Force (human 5-HT4 receptor [4]; [11]) [mN] | TTP (human 5-HT4 receptor [4]; [11]) [ms] | dF/dtmax (human 5-HT4 receptor [4]; [11]) [mN/s] | Force in % of 1 µM 5-HT (human 5-HT4 receptor [4]; [12]) | TR in % of 1 µM 5-HT (human 5-HT4 receptor [4]; [12]) | TTP in % of 1 µM 5-HT (human 5-HT4 receptor [4]; [12]) | dF/dtmax in % of 1 µM 5-HT (human 5-HT4 receptor [4]; [12]) | dF/dtmin in % of 1 µM 5-HT (human 5-HT4 receptor [4]; [12]) | EC50 (human 5-HT4 receptor [4]; [13]) [nM] | EC50 (human 5-HT4 receptor [4]; [14]) [nM] | EC50 (human 5-HT4 receptor [4]; [15]) [nM] | EC50 (human 5-HT4 receptor [4]; [16]) [nM] | EC50 (human 5-HT4 receptor [4]; [17]) [nM] | other results
NCCc1c[nH]c2ccccc12 [Tryptamine, tryptamine] | not from WT | 388 ± 41 | 105% ± 5% | inactive | 4.87 | 5.74 ± 0.84 | 13.28 ± 0.07 | 393.56 ± 52.26 | 81% ± 7% | 97% ± 2% | 94% ± 1% | 78% ± 5% | 82% ± 4% | 26900 | 18600 | 18600 | 2880 | 6610 | EC50 (human 5-HT4 receptor [2]; read-out: pD2, beating rate (converted)): 5370 nM; agonist efficacy on 5-HT4 receptors compared to 5-HT (human 5-HT4 receptor [4]; 5-HT4-TG atrial preparations): partial agonist; efficacy to increase force of contraction and beating rate compared with isoproterenol (human 5-HT4 receptor [4]; 5-HT4-TG, 1 µM isoproterenol given after): less effective than isoproterenol; TR (human 5-HT4 receptor [4]; [11]): 27.61 ± 1.25 ms
CN(C)CCc1c[nH]c2ccc(O)cc12 [Bufotenin, 5-hydroxy-N,N-dimethyl-tryptamine] | not WT | 396 ± 35 | 107% ± 7% | inactive | 5.95 | 6.45 ± 0.75 | 12.84 ± 0.15 | 440.7 ± 61.25 | 91% ± 5% | 103% ± 2% | 98% ± 0% | 87% ± 6% | 88% ± 6% | 170 | 126 | 120 | 490 | 355 | positive inotropic effect in WT left atrial preparations ([1]; electrically stimulated (1 Hz) left atrium): no effects; EC50 (human 5-HT4 receptor [2]; pD2, beating rate): 91.2 nM; force of contraction after drug (human 5-HT4 receptor [5]; increased from 9.74 ± 1.51 mN): 15.6 ± 1.42 mN; rate of relaxation after drug (human 5-HT4 receptor [5]; increased from 227 ± 43 mN/s): 515 ± 43 mN/s; rate of force development after drug (human 5-HT4 receptor [5]; increased from 315 ± 57 mN/s): 653 ± 86 mN/s; phosphorylation state of phospholamban on serine 16 in isolated hearts [6]: not WT; phosphorylation state of phospholamban [7]: increased; inotropic effect in isolated paced human atrial trabeculae ([8]; 0.1–10 µM, 1 Hz): concentration- and time-dependent positive inotropic effects; phosphorylation state of phospholamban on serine 16 in isolated hearts ([9]; Langendorff hearts from 5-HT4-TG): increased; phosphorylation state of phospholamban on serine 16 in atria ([9]; atria of 5-HT4-TG): increased; parenteral dose needed to bring about hallucinogenic effects ([10]; parenteral): 10 mg; per-oral dose needed to bring about hallucinogenic effects ([10]; per-oral): 100 mg; change of the effects in left and right atrium by 50 µM pargyline (human 5-HT4 receptor [4]; left and right atrium of 5-HT4-TG, 50 µM pargyline): shifted to the left
CN1[C@@H]2CC[C@H]1C[C@@H](OC(=O)c1c[nH]c3ccccc13)C2 [Tropisetron, tropisetron] | – | – | – | – | – | – | – | – | – | – | – | – | – | – | – | – | – | – | antagonism of the positive inotropic effect of bufotenin ([8]; tropisetron 10 µM additionally applied): revoked the positive inotropic effect of bufotenin
